US20140135310A1, “SULPHONAMIDE DERIVATIVES OF ALICYCLIC AMINES FOR THE TREATMENT OF CENTRAL NERVOUS SYSTEM DISEASES” (Adamed Sp. z o.o., priority 2011, published 2014)

Assays:
5-HT2A receptor = biological target: T1, 5-HT2A receptor (Homo sapiens, UniProt P28223); assay: Radioligand binding assay, serotoninergic 5-HT2A receptors; settings: for Ki: read-out: Inhibition constants Ki, 5-HT2A
T1 construct: purchased PerkinElmer
Outline: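 Competition curves from scintillation-counted specific binding (total minus binding with excess unlabelled ligand) were Hill-fitted to give IC50, converted to Ki via Cheng-Prusoff using Scatchard-derived Kd.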

5-HT2C receptor = biological target: T2, 5-HT2C receptor (Homo sapiens, UniProt P28335); assay: Radioligand binding assay, serotoninergic 5-HT2C receptors; settings: test compound 1×10^−6 M
T2 construct: expressed in transfected cells; host or cells: HEK-293 cells
T2 sequence (P28335 33-458): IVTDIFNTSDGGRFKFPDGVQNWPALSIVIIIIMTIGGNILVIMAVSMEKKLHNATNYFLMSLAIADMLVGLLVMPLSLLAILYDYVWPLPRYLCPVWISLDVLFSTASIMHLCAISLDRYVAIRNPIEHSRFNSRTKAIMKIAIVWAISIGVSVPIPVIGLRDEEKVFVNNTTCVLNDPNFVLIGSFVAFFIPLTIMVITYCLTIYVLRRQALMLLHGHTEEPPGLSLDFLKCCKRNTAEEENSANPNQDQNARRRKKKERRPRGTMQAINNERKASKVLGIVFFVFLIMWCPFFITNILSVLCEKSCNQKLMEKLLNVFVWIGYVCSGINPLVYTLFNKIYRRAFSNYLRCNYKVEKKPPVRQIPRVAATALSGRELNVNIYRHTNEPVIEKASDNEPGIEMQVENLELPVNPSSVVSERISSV

[1] = biological target: dopaminergic receptors D2 (Homo sapiens, UniProt P14416); assay: Radioligand binding assay, dopaminergic D2 receptors; settings: for Ki: read-out: Inhibition constants Ki for D2 receptors, D2
Outline: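 Displacement of radioligand from human dopamine D2, D3 or D4.4 receptors, counted by scintillation; specific binding is total minus binding under excess unlabelled ligand. IC50 values come from Hill curve fits of percent inhibition, then converted to Ki by Cheng-Prusoff using Scatchard-derived KD.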

[2] = biological target: dopaminergic receptors D3 (Homo sapiens, UniProt P35462); assay: Radioligand binding assay, dopaminergic D3 receptors; settings: test compound 1×10^−6 M
Outline: (§1)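 Scintillation read-out. Specific = total − nonspecific (excess cold ligand). Data as % of control specific binding / % inhibition; IC50 by Hill fit; Ki = IC50/(1+L/KD), KD from Scatchard plot.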

[3] = biological target: T3, H1 histaminergic receptors (Homo sapiens, UniProt P35367); assay: Radioligand binding assay, histaminergic H1 receptors; settings: human recombinant (HEK-293 cells), [3H]pyrilamine 1 nM
T3 construct: expressed in transfected cells; host or cells: HEK-293 cells
Outline: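 Competition binding at human H1 receptors; specific binding taken as total minus non-specific binding in excess unlabelled ligand, scintillation read-out. IC50 from Hill-equation fit of competition curves; Ki by Cheng-Prusoff using radioligand concentration and Kd (from Scatchard plot).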

receptors D4.4 = biological target: T4, receptors D4.4 (Homo sapiens, UniProt P21917); assay: Radioligand binding assay, dopaminergic D4 (D4.4) receptors; settings: test compound 1×10^−6 M
T4 sequence (P21917 1-419): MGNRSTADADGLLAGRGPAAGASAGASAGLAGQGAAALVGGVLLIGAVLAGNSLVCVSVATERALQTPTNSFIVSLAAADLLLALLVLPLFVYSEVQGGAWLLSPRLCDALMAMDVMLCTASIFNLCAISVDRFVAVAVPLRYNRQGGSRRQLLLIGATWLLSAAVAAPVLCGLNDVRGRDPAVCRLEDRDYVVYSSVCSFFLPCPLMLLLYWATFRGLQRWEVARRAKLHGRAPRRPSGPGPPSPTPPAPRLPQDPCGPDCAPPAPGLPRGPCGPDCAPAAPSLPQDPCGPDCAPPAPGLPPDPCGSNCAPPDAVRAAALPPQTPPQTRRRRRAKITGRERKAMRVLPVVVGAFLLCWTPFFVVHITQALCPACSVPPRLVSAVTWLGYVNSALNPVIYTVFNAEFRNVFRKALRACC
Outline: as §1

5-HT6 receptor = biological target: T5, 5-HT6 receptor (Homo sapiens, UniProt P50406); assay: Radioligand binding assay, serotoninergic 5-HT6 receptors; settings: for Ki: read-out: Inhibition constants Ki, 5-HT6;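 as to 5-HT6 [%]: test compound at 1 µM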
T5 construct: purchased PerkinElmer
Outline: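 Values are Ki from Cheng–Prusoff, taking IC50 from Hill nonlinear regression of competition curves and KD from a Scatchard plot. Specific binding was total minus binding with excess unlabelled ligand. Radioligand displacement was detected by scintillation counting, and data were also reported as percent of control specific binding.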

α2C adrenergic receptors = biological target: T6, α2C adrenergic receptors (Homo sapiens, UniProt P18825); assay: Radioligand binding assay, adrenergic α2C receptors; settings: test compound 1×10^−6 M
T6 construct: expressed in transfected cells; host or cells: CHO cells
T6 sequence (P18825 1-462): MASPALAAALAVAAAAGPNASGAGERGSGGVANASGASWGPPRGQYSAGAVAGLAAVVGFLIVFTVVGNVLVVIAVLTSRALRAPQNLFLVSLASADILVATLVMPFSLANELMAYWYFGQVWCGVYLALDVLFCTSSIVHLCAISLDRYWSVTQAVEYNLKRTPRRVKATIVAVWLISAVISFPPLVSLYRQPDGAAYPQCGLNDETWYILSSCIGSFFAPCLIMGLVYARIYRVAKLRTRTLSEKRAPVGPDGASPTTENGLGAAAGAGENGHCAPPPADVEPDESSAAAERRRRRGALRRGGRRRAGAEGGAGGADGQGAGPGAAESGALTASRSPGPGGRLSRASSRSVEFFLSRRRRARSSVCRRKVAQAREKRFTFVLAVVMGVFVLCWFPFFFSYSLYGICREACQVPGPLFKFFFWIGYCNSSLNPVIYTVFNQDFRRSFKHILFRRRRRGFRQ
Outline: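 Competitive radioligand binding at human α2C receptors, with scintillation counting. Nonspecific binding defined with excess unlabelled ligand; results given as % inhibition of control specific binding. IC50 from Hill-equation fits of competition curves; Ki via Cheng-Prusoff using radioligand concentration and Scatchard-derived KD.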

[4] = binding assay result in %, Table 5a
[5] = binding assay, test compound 1×10^−6 M

Sequence of dopaminergic receptors D2 (P14416 whole entry): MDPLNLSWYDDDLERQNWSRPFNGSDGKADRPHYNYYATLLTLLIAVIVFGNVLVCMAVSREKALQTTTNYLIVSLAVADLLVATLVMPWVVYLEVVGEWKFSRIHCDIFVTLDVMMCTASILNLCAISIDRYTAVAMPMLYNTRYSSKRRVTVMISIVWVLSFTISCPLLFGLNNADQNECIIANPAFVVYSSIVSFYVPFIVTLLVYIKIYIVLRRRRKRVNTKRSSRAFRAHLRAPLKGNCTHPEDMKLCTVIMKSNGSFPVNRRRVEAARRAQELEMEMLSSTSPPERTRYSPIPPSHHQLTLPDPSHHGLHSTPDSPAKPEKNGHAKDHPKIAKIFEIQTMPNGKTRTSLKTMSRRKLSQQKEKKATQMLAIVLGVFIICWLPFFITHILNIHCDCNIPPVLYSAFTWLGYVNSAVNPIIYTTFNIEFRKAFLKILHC
T1 sequence (P28223 whole entry): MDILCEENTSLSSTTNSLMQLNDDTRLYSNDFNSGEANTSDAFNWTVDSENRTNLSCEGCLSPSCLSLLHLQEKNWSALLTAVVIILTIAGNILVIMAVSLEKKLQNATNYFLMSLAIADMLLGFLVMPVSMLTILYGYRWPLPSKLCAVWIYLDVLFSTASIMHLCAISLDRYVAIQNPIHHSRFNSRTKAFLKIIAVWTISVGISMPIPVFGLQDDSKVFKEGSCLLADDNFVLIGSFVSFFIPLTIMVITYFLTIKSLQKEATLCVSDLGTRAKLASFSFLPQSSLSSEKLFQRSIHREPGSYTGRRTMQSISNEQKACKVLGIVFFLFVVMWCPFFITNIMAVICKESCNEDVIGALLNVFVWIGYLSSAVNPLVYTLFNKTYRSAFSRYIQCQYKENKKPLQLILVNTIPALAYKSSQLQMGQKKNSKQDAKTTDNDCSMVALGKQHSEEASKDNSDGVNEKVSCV
T3 sequence (P35367 whole entry): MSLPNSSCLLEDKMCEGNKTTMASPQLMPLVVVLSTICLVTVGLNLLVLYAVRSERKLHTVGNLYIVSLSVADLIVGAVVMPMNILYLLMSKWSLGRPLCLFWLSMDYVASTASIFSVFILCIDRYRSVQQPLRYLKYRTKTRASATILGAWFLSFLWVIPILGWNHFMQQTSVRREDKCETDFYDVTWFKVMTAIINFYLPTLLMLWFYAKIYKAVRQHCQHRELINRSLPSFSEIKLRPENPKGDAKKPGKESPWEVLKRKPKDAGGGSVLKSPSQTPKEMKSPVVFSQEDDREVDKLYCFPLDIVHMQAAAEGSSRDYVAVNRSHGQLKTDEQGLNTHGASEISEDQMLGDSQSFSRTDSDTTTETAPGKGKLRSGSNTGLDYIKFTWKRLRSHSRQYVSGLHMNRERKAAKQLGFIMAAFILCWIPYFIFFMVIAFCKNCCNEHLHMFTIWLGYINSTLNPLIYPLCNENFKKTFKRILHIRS
T5 sequence (P50406 whole entry): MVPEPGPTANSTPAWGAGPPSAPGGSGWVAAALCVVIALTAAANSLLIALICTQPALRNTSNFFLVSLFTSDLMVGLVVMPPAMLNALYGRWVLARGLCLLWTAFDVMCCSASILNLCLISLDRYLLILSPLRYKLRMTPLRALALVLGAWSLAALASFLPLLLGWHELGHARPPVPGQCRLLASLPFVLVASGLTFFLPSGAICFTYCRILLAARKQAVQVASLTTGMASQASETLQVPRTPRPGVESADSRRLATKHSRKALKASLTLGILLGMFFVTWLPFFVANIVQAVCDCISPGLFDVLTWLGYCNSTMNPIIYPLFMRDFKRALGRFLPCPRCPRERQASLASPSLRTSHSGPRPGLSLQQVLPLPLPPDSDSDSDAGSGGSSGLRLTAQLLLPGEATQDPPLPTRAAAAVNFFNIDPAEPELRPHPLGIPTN
Sequence of dopaminergic receptors D3 (P35462 whole entry): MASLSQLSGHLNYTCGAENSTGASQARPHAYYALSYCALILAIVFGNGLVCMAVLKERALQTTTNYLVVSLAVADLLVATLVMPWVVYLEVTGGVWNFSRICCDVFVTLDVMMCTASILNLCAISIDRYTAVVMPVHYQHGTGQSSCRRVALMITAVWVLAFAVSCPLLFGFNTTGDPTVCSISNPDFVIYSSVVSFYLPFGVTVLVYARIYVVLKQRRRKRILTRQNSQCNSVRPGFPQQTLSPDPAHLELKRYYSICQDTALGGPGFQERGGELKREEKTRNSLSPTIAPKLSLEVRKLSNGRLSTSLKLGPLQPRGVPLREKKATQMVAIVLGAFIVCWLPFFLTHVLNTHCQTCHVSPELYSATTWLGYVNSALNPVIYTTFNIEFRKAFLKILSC

Row | Compound | inhibition at 1 µM (5-HT2A receptor; [4]) [%] | inhibition at 1 µM (5-HT2C receptor) [%] | inhibition at 1 µM [1, 5] [%] | inhibition at 1 µM [2] [%] | inhibition at 1 µM [3] [%] | inhibition at 1 µM (receptors D4.4) [%] | inhibition at 1 µM (5-HT6 receptor; [4]) [%] | inhibition at 1 µM (α2C adrenergic receptors) [%] | Ki (5-HT2A receptor) [nM] | Ki [1] [nM] | Ki (5-HT6 receptor) [nM] | 5-HT2A [%] (5-HT2A receptor; [4]) | 5-HT2C [%] (5-HT2C receptor) | D2 [%] [1, 5] [%] | D3 [%] [2] [%] | H1 [%] [3] [%] | D4.4 [%] (receptors D4.4) | 5-HT6 [%] (5-HT6 receptor; [4]) | α2C [%] (α2C adrenergic receptors)
1 | Cc1c(S(=O)(=O)NC2CCN(CCCc3noc4cc(F)ccc34)C2)sc2ccc(F)cc12 (centres unmarked) [Compound 28, 5-Fluoro-N-[1-[3-(6-fluoro-1,2-benzoxazol-3-yl)propyl]pyrrolidin-3-yl]-3-methyl-benzothiophene-2-sulphonamide] | 101 | 72 | 97 | 96 | 63 | 75 | 96 | 93 |  |  |  |  |  |  |  |  |  |  | 
2 | O=S(=O)(NCC1CN(CCOc2cccc3c2OCCO3)C1)c1ccc(Cl)c(Cl)c1 [Compound 183, 3,4-Dichloro-N-[[1-[2-(2,3-dihydro-1,4-benzodioxin-5-yloxy)ethyl]azetidin-3-yl]methyl]benzenesulphonamide] | 94 | 98 | 92 | 79 | 42 | 80 | 81 | 99 |  |  |  |  |  |  |  |  |  |  | 
3 | O=S(=O)(NC1CCN(CCCc2noc3cc(F)ccc23)C1)c1ccc(Cl)c(F)c1 (centres unmarked) [Compound 11, 4-Chloro-3-fluoro-N-[1-[3-(6-fluoro-1,2-benzoxazol-3-yl)propyl]-pyrrolidin-3-yl]benzene-sulphonamide] | 100 | 27 | 89 | 49 | 37 | 92 | 94 | 71 |  |  |  |  |  |  |  |  |  |  | 
4 | O=S(=O)(N[C@H]1CCN(CCCc2noc3cc(F)ccc23)C1)c1cc2ccccc2o1 [Compound 215, N-[(3S)-1-[3-(6-Fluoro-1,2-benzoxazol-3-yl)propyl]pyrrolidin-3-yl]benzo-furan-2-sulphonamide] |  | 74 | 97 | 85 | 50 | 88 | 93 | 66 | 1.2 | 3 | 21 |  |  |  |  |  |  |  | 
5 | O=S(=O)(NC1CN(CCOc2cccc3[nH]ccc23)C1)c1cccc(Cl)c1 [Compound 47, 3-Chloro-N-[1-[2-(1H-indol-4-yloxy)ethyl]azetidin-3-yl]benzene-sulphonamide] | 80 | 33 | 83 | 97 | -3 | 80 | 45 | 80 |  |  |  |  |  |  |  |  |  |  | 
6 | O=S(=O)(N[C@@H]1CCN(CCCc2noc3cc(F)ccc23)C1)c1cc2ccc(Cl)cc2s1 [Compound 198, 6-Chloro-N-[(3R)-1-[3-(6-fluoro-1,2-benzoxazol-3-yl)propyl]pyrrolidin-3-yl]benzothiophene-2-sulphonamide] |  | 86 | 99 | 97 | 81 | 48 | 97 | 80 | 0.7 | 1.8 | 8.6 |  |  |  |  |  |  |  | 
7 | CC(C)(C)c1ccc(S(=O)(=O)NCC2CN(CCOc3cccc4c3OCCO4)C2)cc1 [Compound 181, 4-tert-Butyl-N-[[1-[2-(2,3-dihydro-1,4-benzodioxin-5-yloxy)ethyl]azetidin-3-yl]methyl]benzenesulphonamide] | 89 | 93 | 73 | 77 | 27 | 64 | 30 | 96 |  |  |  |  |  |  |  |  |  |  | 
8 | Cc1cccc(S(=O)(=O)NC2CN(CCOc3cccc4[nH]ccc34)C2)c1 [Compound 48, N-[1-[2-(1H-Indol-4-yloxy)ethyl]azetidin-3-yl]-3-methyl-benzenesulphonamide] | 88 | 32 | 84 | 104 | 21 | 80 | 17 | 105 |  |  |  |  |  |  |  |  |  |  | 
9 | COc1cccc(S(=O)(=O)NCC2CN(CCCc3noc4cc(F)ccc34)C2)c1 [Compound 143, N-[[1-[3-(6-Fluoro-1,2-benzoxazol-3-yl)propyl]azetidin-3-yl]methyl]-3-methoxy-benzenesulphonamide] | 94 | 68 | 80 | 46 | 36 | 80 | 78 | 78 |  |  |  |  |  |  |  |  |  |  | 
10 | O=S(=O)(N[C@H]1CCN(CCCc2noc3cc(F)ccc23)C1)c1csc2ccccc12 [Compound 225, N-[(3S)-1-[3-(6-Fluoro-1,2-benzoxazol-3-yl)propyl]pyrrolidin-3-yl]benzothiophene-3-sulphonamide] |  | 72 | 97 | 84 | 57 | 91 | 99 | 80 | 0.9 | 9.2 | 1.6 |  |  |  |  |  |  |  | 
11 | O=S(=O)(NC1CCN(CCCc2noc3cc(F)ccc23)C1)c1ccc2ccccc2c1 (centres unmarked) [Compound 21, N-[1-[3-(6-Fluoro-1,2-benzoxazol-3-yl)propyl]pyrrolidin-3-yl]naphthalene-2-sulphonamide] | 100 | 71 | 100 | 96 | 57 | 83 | 95 | 78 |  |  |  |  |  |  |  |  |  |  | 
12 | O=S(=O)(NCC1CCN(CCOc2cccc3c2OCCO3)C1)c1ccc(F)c(Cl)c1 (centres unmarked) [Compound 317, 3-Chloro-N-[[1-[2-(2,3-dihydro-1,4-benzodioxin-5-yloxy)ethyl]pyrrolidin-3-yl]methyl]-4-fluorobenzenesulphonamide] | 72 | 45 | 53 | 49 | 47 | 59 | 76 | 95 |  |  |  |  |  |  |  |  |  |  | 
13 | N-[[1-[2-[(2,2-Dimethyl-3H-benzofuran-7-yl)oxy]ethyl]azetidin-3-yl]methyl]-3-hydroxy-benzenesulphonamide [Compound 111] |  |  |  |  |  |  |  |  |  |  |  | 92 | 87 | 97 | 87 | 38 | 61 | 41 | 90
